Source: ChEMBL document CHEMBL1201862, “PubChem BioAssay data set” (2004)
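How tested: cells in 96-well plates exposed to compound for 48 hours at five concentrations. Abbreviation: GI50, concentration required for 50% inhibition of growth.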 Activity calls are given as the source filed them. Rule as the data show it: active = GI50 up to about 1.1 µM and inactive = higher.

How the values were obtained:
Assay in all cases: DTP human tumour cell line panel, 48 h
[1] = tested on: IGROV-1
[2] = tested on: DU-145
[3] = tested on: M14
[4] = tested on: HT-29
[5] = tested on: NCI/ADR-RES
[6] = tested on: LOX IMVI
[7] = tested on: NCI-H226
[8] = tested on: HCC 2998
[9] = tested on: OVCAR-8
[10] = tested on: SK-OV-3
[11] = tested on: MCF7
[12] = tested on: SK-MEL-2
[13] = tested on: T47D
[14] = tested on: RXF 393
[15] = tested on: SF-295
[16] = tested on: U-251
[17] = tested on: HL-60
[18] = tested on: SF-539
[19] = tested on: RPMI-8226
[20] = tested on: SNB-75
[21] = tested on: OVCAR-5
[22] = tested on: HCT-116
[23] = tested on: SW-620
[24] = tested on: SK-MEL-5
[25] = tested on: OVCAR-3
[26] = tested on: CAKI-1
[27] = tested on: MDA-MB-231
[28] = tested on: HCT-15
[29] = tested on: EKVX
[30] = tested on: UO-31
[31] = tested on: SNB-19
[32] = tested on: NCI-H460
[33] = tested on: MOLT-4
[34] = tested on: OVCAR-4
[35] = tested on: HOP-92
[36] = tested on: TK-10
[37] = tested on: 786-0
[38] = tested on: SR
[39] = tested on: ACHN
[40] = tested on: BT-549
[41] = tested on: KM12
[42] = tested on: MDA-N
[43] = tested on: NCI-H522
[44] = tested on: NCI-H23
[45] = tested on: COLO 205
[46] = tested on: K562
[47] = tested on: Hs-578T
[48] = tested on: UACC-62
[49] = tested on: CCRF-CEM
[50] = tested on: SF-268
[51] = tested on: A549
[52] = tested on: SK-MEL-28
[53] = tested on: PC-3
[54] = tested on: UACC-257
[55] = tested on: Malme-3M
[56] = tested on: A498
[57] = tested on: MDA-MB-435
[58] = tested on: HOP-62
[59] = tested on: SN12C

In the case of O=C(O)c1ccc(C(=O)c2ccccc2C(=O)O)cc1C(=O)O, the GI50 [1] is reported as > 100 µM (inactive), the GI50 [2] is reported as > 100 µM (inactive) and the GI50 [3] is reported as > 100 µM (inactive). For the same compound, the GI50 [4] was > 100 µM (inactive), the GI50 [5] was > 100 µM (inactive) and the GI50 [6] was > 100 µM (inactive). The GI50 [7] was > 100 µM (inactive), the GI50 [8] was > 100 µM (inactive) and the GI50 [9] was > 100 µM (inactive). The GI50 [10] was > 100 µM (inactive), the GI50 [11] was > 100 µM (inactive) and the GI50 [12] was > 100 µM (inactive). The GI50 [13] was > 100 µM (inactive), the GI50 [14] was > 100 µM (inactive) and the GI50 [15] was > 100 µM (inactive). The GI50 [16] was > 100 µM (inactive), the GI50 [17] was > 76.9 µM (inactive) and the GI50 [18] was > 100 µM (inactive). The GI50 [19] was > 100 µM (inactive), the GI50 [20] was > 100 µM (inactive) and the GI50 [21] was > 100 µM (inactive). The GI50 [22] was > 100 µM (inactive), the GI50 [23] was > 100 µM (inactive) and the GI50 [24] was > 100 µM (inactive). The GI50 [25] was > 100 µM (inactive), the GI50 [26] was > 100 µM (inactive) and the GI50 [27] was > 100 µM (inactive). The GI50 [28] was > 100 µM, the GI50 [29] was > 100 µM (inactive) and the GI50 [30] was > 100 µM (inactive). For the same compound, the GI50 [31] was > 100 µM (inactive), the GI50 [32] was > 100 µM (inactive) and the GI50 [33] was > 100 µM (inactive). For the same compound, the GI50 [34] was > 100 µM (inactive), the GI50 [35] was > 100 µM (inactive) and the GI50 [36] was > 100 µM (inactive). For the same compound, the GI50 [37] was > 100 µM (inactive), the GI50 [38] was > 100 µM (inactive) and the GI50 [39] was > 100 µM (inactive). The GI50 [40] was > 100 µM (inactive), the GI50 [41] was > 100 µM (inactive) and the GI50 [42] was > 100 µM (inactive). The GI50 [43] was > 100 µM (inactive), the GI50 [44] was > 100 µM (inactive) and the GI50 [45] was > 100 µM (inactive). The GI50 [46] was > 100 µM (inactive), the GI50 [47] was > 100 µM (inactive) and the GI50 [48] was > 100 µM (inactive). The GI50 [49] was > 26.4 µM (inactive), the GI50 [50] was > 100 µM (inactive) and the GI50 [51] was > 100 µM (inactive). For the same compound, the GI50 [52] was > 100 µM (inactive), the GI50 [53] was > 100 µM (inactive) and the GI50 [54] was > 100 µM (inactive). The GI50 [55] was > 100 µM (inactive), the GI50 [56] was > 100 µM (inactive) and the GI50 [57] was > 100 µM (inactive). For the same compound, the GI50 [58] was > 100 µM (inactive) and the GI50 [59] was > 100 µM (inactive).

For Oc1cccc2c(Br)ccnc12, the GI50 [1] was 2.12 µM (inactive), the GI50 [2] was 3.89 µM (inactive) and the GI50 [3] was 1.98 µM (inactive). The GI50 [4] was 5.4 µM (inactive), the GI50 [5] was 2.08 µM (inactive) and the GI50 [6] was 0.713 µM (active). The GI50 [7] was 7.1 µM (inactive), the GI50 [8] was 14.7 µM (inactive) and the GI50 [9] was 1.22 µM (inactive). For the same compound, the GI50 [10] was 26.7 µM (inactive), the GI50 [11] was 4.43 µM (inactive) and the GI50 [12] was 11.4 µM (inactive). The GI50 [13] was 3.17 µM (inactive), the GI50 [14] was 4.65 µM (inactive) and the GI50 [15] was 1.46 µM (inactive). The GI50 [16] was 2.28 µM (inactive), the GI50 [17] was 0.181 µM (active) and the GI50 [18] was 3.63 µM (inactive). For the same compound, the GI50 [19] was 0.665 µM (active), the GI50 [20] was 7.59 µM (inactive) and the GI50 [21] was 6.08 µM (inactive). The GI50 [22] was 1.4 µM (inactive), the GI50 [23] was 3.51 µM (inactive) and the GI50 [24] was 2.74 µM (inactive). The GI50 [25] was 0.697 µM (active), the GI50 [26] was 12.3 µM (inactive) and the GI50 [27] was 2.75 µM (inactive). For the same compound, the GI50 [28] was 2.27 µM, the GI50 [29] was 2.88 µM (inactive) and the GI50 [30] was 2.84 µM (inactive). The GI50 [31] was 7.71 µM (inactive), the GI50 [32] was 3.57 µM (inactive) and the GI50 [33] was 0.855 µM (active). The GI50 [34] was 2.55 µM (inactive), the GI50 [35] was 5.71 µM (inactive) and the GI50 [36] was 32.7 µM (inactive). The GI50 [37] was 17.1 µM (inactive), the GI50 [38] was 0.378 µM (active) and the GI50 [39] was 2.58 µM (inactive). For the same compound, the GI50 [40] was 8.93 µM (inactive), the GI50 [41] was 5.19 µM (inactive) and the GI50 [42] was 5.71 µM (inactive). The GI50 [43] was 3.16 µM (inactive), the GI50 [44] was 3.94 µM (inactive) and the GI50 [45] was 11.2 µM (inactive). The GI50 [46] was 0.593 µM (active), the GI50 [47] was 8.55 µM (inactive) and the GI50 [48] was 1.47 µM (inactive). The GI50 [49] was 0.38 µM (active), the GI50 [50] was 0.767 µM (active) and the GI50 [51] was 4.34 µM (inactive). The GI50 [52] was 12.3 µM (inactive), the GI50 [53] was 4.17 µM (inactive) and the GI50 [54] was 2.48 µM (inactive). The GI50 [55] was 8.38 µM (inactive), the GI50 [56] was 7.82 µM (inactive) and the GI50 [57] was 5.92 µM (inactive). The GI50 [58] was 8.73 µM (inactive) and the GI50 [59] was 3.62 µM (inactive).
